Where “and” joins values, the source holds several entries; their conditions need not be identical. Equal entries are not always repeated.
Organism: Rattus norvegicus
Experiment: DrugMatrix - Regimen: Daily Repeat
Type: toxicity, organism-based, Sprague-Dawley
Parameters: regimen Daily Repeat, gender Male, age 6-8 weeks
Details: in vivo, ip, route intraperitoneal, vehicle 100 % SALINE; for ABSOLUTE BASOPHIL / ABSOLUTE LYMPHOCYTE / ABSOLUTE MONOCYTE / ABSOLUTE SEGMENTED NEUTROPHIL / BASOPHIL / EOSINOPHIL / ERYTHROCYTE COUNT / HEMATOCRIT / HEMOGLOBIN / LEUKOCYTE COUNT / LYMPHOCYTE / MEAN CORPUSCULAR HEMOGLOBIN / MEAN CORPUSCULAR HEMOGLOBIN CONCENTRATION / MEAN CORPUSCULAR VOLUME / MONOCYTE / NEUTROPHIL / NUCLEATED RED BLOOD CELLS / PLATELET COUNT / ABSOLUTE EOSINOPHIL: tissue Blood; for ALANINE AMINOTRANSFERASE / ALBUMIN / ALKALINE PHOSPHATASE / ASPARTATE AMINOTRANSFERASE / BLOOD UREA NITROGEN / CARBON DIOXIDE / CHLORIDE / CHOLESTEROL / CREATINE PHOSPHOKINASE / CREATININE / GLUCOSE / LACTATE DEHYDROGENASE / LIPASE / PHOSPHORUS / POTASSIUM / SODIUM / TOTAL BILIRUBIN / TOTAL PROTEIN / URIC ACID: tissue Plasma
[1] = 0 mg/kg, 72 h, dose level Control, time 3 day
[2] = 0 mg/kg, 120 h, dose level Control, time 5 day
[3] = 0 mg/kg, […], dose level Control, time 7 day
[4] = 16 mg/kg, 72 h, dose level Low, time 3 day
[5] = 16 mg/kg, […], dose level Low, time 7 day

## C=CCO [ALLYL ALCOHOL]
[1]
  ABSOLUTE BASOPHIL: 0 CELLS/uL
  ABSOLUTE LYMPHOCYTE: 13949.83 CELLS/uL and 6988.5 CELLS/uL
  ABSOLUTE MONOCYTE: 176.17 CELLS/uL and 88 CELLS/uL
  ABSOLUTE SEGMENTED NEUTROPHIL: 1407.33 CELLS/uL and 1041.83 CELLS/uL
  BASOPHIL: 0%
  EOSINOPHIL: 0% and 0.17%
  ERYTHROCYTE COUNT: 5.29 x10E6/uL and 5.73 x10E6/uL
  HEMATOCRIT: 33.5% and 35.87%
  HEMOGLOBIN: 13.47 G/DL and 13.27 G/DL
  LEUKOCYTE COUNT: 15.53 x10E3/uL and 8.13 x10E3/uL
  LYMPHOCYTE: 89.5% and 85.83%
  MEAN CORPUSCULAR HEMOGLOBIN: 25.5 pg and 23.2 pg
  MEAN CORPUSCULAR HEMOGLOBIN CONCENTRATION: 40.27 G/DL and 37 G/DL
  MEAN CORPUSCULAR VOLUME: 63.33 fL and 62.63 fL
  MONOCYTE: 1.17%
  NEUTROPHIL: 9.33% and 12.83%
  NUCLEATED RED BLOOD CELLS: 0 /100WBC
  PLATELET COUNT: 1100 x10E3/uL and 1294.17 x10E3/uL
  ALANINE AMINOTRANSFERASE: 41.5 u/L and 49.17 u/L
  ALBUMIN: 3.78 G/DL and 4.35 G/DL
  ALKALINE PHOSPHATASE: 267.5 u/L and 415.17 u/L
  ASPARTATE AMINOTRANSFERASE: 77.67 u/L and 88.5 u/L
  BLOOD UREA NITROGEN: 13.67 mg/dL and 14.33 mg/dL
  CARBON DIOXIDE: 28.17 mmol/L and 34.83 mmol/L
  CHLORIDE: 100.67 MEQ/L and 98.5 MEQ/L
  CHOLESTEROL: 70.67 mg/dL and 75.83 mg/dL
  CREATINE PHOSPHOKINASE: 341.83 u/L and 271.83 u/L
  CREATININE: 0.15 mg/dL and 0.19 mg/dL
  GLUCOSE: 169 mg/dL and 148.17 mg/dL
  LACTATE DEHYDROGENASE: 138.5 u/L and 166.33 u/L
  LIPASE: 10.33 u/L and 9.2 u/L
  PHOSPHORUS: 9.6 mg/dL and 10.37 mg/dL
  POTASSIUM: 5.69 MEQ/L and 6.16 MEQ/L
  SODIUM: 140.88 MEQ/L and 143.75 MEQ/L
  TOTAL BILIRUBIN: 0.2 mg/dL and 0.18 mg/dL
  TOTAL PROTEIN: 5.95 G/DL and 6.22 G/DL
  URIC ACID: 1.18 mg/dL and 0.92 mg/dL
[2]
  ABSOLUTE BASOPHIL: 0 CELLS/uL
  ABSOLUTE EOSINOPHIL: 9.17 CELLS/uL
  ABSOLUTE LYMPHOCYTE: 6359.17 CELLS/uL
  ABSOLUTE MONOCYTE: 87.33 CELLS/uL
  ABSOLUTE SEGMENTED NEUTROPHIL: 894.33 CELLS/uL
  BASOPHIL: 0%
  EOSINOPHIL: 0.17%
  ERYTHROCYTE COUNT: 5.68 x10E6/uL
  HEMATOCRIT: 35.05%
  HEMOGLOBIN: 13.22 G/DL
  LEUKOCYTE COUNT: 7.35 x10E3/uL
  LYMPHOCYTE: 86.33%
  MEAN CORPUSCULAR HEMOGLOBIN: 23.32 pg
  MEAN CORPUSCULAR HEMOGLOBIN CONCENTRATION: 37.72 G/DL
  MEAN CORPUSCULAR VOLUME: 61.82 fL
  MONOCYTE: 1.17%
  NEUTROPHIL: 12.33%
  NUCLEATED RED BLOOD CELLS: 0 /100WBC
  PLATELET COUNT: 1231 x10E3/uL
  ALANINE AMINOTRANSFERASE: 44.5 u/L
  ALBUMIN: 4.47 G/DL
  ALKALINE PHOSPHATASE: 372.33 u/L
  ASPARTATE AMINOTRANSFERASE: 88.67 u/L
  BLOOD UREA NITROGEN: 14.67 mg/dL
  CARBON DIOXIDE: 35.33 mmol/L
  CHLORIDE: 100.6 MEQ/L
  CHOLESTEROL: 75 mg/dL
  CREATINE PHOSPHOKINASE: 303.83 u/L
  CREATININE: 0.16 mg/dL
  GLUCOSE: 135.83 mg/dL
  LACTATE DEHYDROGENASE: 137.17 u/L
  LIPASE: 9.2 u/L
  PHOSPHORUS: 10.42 mg/dL
  POTASSIUM: 5.9 MEQ/L
  SODIUM: 143.7 MEQ/L
  TOTAL BILIRUBIN: 0.18 mg/dL
  TOTAL PROTEIN: 6.42 G/DL
  URIC ACID: 0.78 mg/dL
[3]
  ABSOLUTE BASOPHIL: 0 CELLS/uL
  ABSOLUTE EOSINOPHIL: 12.33 CELLS/uL
  ABSOLUTE LYMPHOCYTE: 8726.33 CELLS/uL
  ABSOLUTE MONOCYTE: 135.33 CELLS/uL
  ABSOLUTE SEGMENTED NEUTROPHIL: 559.33 CELLS/uL
  BASOPHIL: 0%
  EOSINOPHIL: 0.17%
  ERYTHROCYTE COUNT: 5.5 x10E6/uL
  HEMATOCRIT: 34.02%
  HEMOGLOBIN: 13.12 G/DL
  LEUKOCYTE COUNT: 9.43 x10E3/uL
  LYMPHOCYTE: 92.67%
  MEAN CORPUSCULAR HEMOGLOBIN: 23.85 pg
  MEAN CORPUSCULAR HEMOGLOBIN CONCENTRATION: 38.57 G/DL
  MEAN CORPUSCULAR VOLUME: 61.83 fL
  MONOCYTE: 1.33%
  NEUTROPHIL: 5.83%
  NUCLEATED RED BLOOD CELLS: 0 /100WBC
  PLATELET COUNT: 1308.83 x10E3/uL
  ALANINE AMINOTRANSFERASE: 56 u/L
  ALBUMIN: 3.7 G/DL
  ALKALINE PHOSPHATASE: 281.17 u/L
  ASPARTATE AMINOTRANSFERASE: 78.33 u/L
  BLOOD UREA NITROGEN: 15 mg/dL
  CARBON DIOXIDE: 30.5 mmol/L
  CHLORIDE: 103.33 MEQ/L
  CHOLESTEROL: 63.83 mg/dL
  CREATINE PHOSPHOKINASE: 253.33 u/L
  CREATININE: 0.2 mg/dL
  GLUCOSE: 151.17 mg/dL
  LACTATE DEHYDROGENASE: 89 u/L
  LIPASE: 10.33 u/L
  PHOSPHORUS: 9.7 mg/dL
  POTASSIUM: 5.46 MEQ/L
  SODIUM: 146.28 MEQ/L
  TOTAL BILIRUBIN: 0.12 mg/dL
  TOTAL PROTEIN: 6.07 G/DL
  URIC ACID: 0.65 mg/dL
[4]
  ABSOLUTE BASOPHIL: 0 CELLS/uL
  ABSOLUTE EOSINOPHIL: 0 CELLS/uL
  ABSOLUTE LYMPHOCYTE: 14529.5 CELLS/uL
  ABSOLUTE MONOCYTE: 274 CELLS/uL
  ABSOLUTE SEGMENTED NEUTROPHIL: 1013.17 CELLS/uL
  BASOPHIL: 0%
  EOSINOPHIL: 0%
  ERYTHROCYTE COUNT: 5.55 x10E6/uL
  HEMATOCRIT: 35.25%
  HEMOGLOBIN: 13.98 G/DL
  LEUKOCYTE COUNT: 15.82 x10E3/uL
  LYMPHOCYTE: 91.67%
  MEAN CORPUSCULAR HEMOGLOBIN: 25.2 pg
  MEAN CORPUSCULAR HEMOGLOBIN CONCENTRATION: 39.7 G/DL
  MEAN CORPUSCULAR VOLUME: 63.53 fL
  MONOCYTE: 1.67%
  NEUTROPHIL: 6.67%
  NUCLEATED RED BLOOD CELLS: 0 /100WBC
  PLATELET COUNT: 1167.33 x10E3/uL
  ALANINE AMINOTRANSFERASE: 46.17 u/L
  ALBUMIN: 3.8 G/DL
  ALKALINE PHOSPHATASE: 266.8 u/L
  ASPARTATE AMINOTRANSFERASE: 66.67 u/L
  BLOOD UREA NITROGEN: 13 mg/dL
  CARBON DIOXIDE: 32.5 mmol/L
  CHLORIDE: 100.2 MEQ/L
  CHOLESTEROL: 68.67 mg/dL
  CREATINE PHOSPHOKINASE: 231.17 u/L
  CREATININE: 0.44 mg/dL
  GLUCOSE: 143.67 mg/dL
  LACTATE DEHYDROGENASE: 122.67 u/L
  LIPASE: 8 u/L
  PHOSPHORUS: 8.67 mg/dL
  POTASSIUM: 6.2 MEQ/L
  SODIUM: 141.52 MEQ/L
  TOTAL BILIRUBIN: 0.18 mg/dL
  TOTAL PROTEIN: 5.57 G/DL
  URIC ACID: 1.13 mg/dL
[5]
  ABSOLUTE BASOPHIL: 0 CELLS/uL
  ABSOLUTE EOSINOPHIL: 88.33 CELLS/uL
  ABSOLUTE LYMPHOCYTE: 10357.5 CELLS/uL
  ABSOLUTE MONOCYTE: 213 CELLS/uL
  ABSOLUTE SEGMENTED NEUTROPHIL: 574.5 CELLS/uL
  BASOPHIL: 0%
  EOSINOPHIL: 1%
  ERYTHROCYTE COUNT: 5.67 x10E6/uL
  HEMATOCRIT: 35.32%
  HEMOGLOBIN: 13.55 G/DL
  LEUKOCYTE COUNT: 11.23 x10E3/uL
  LYMPHOCYTE: 91.5%
  MEAN CORPUSCULAR HEMOGLOBIN: 23.88 pg
  MEAN CORPUSCULAR HEMOGLOBIN CONCENTRATION: 38.38 G/DL
  MEAN CORPUSCULAR VOLUME: 62.35 fL
  MONOCYTE: 1.83%
  NEUTROPHIL: 5.67%
  NUCLEATED RED BLOOD CELLS: 0 /100WBC
  PLATELET COUNT: 1370 x10E3/uL
